Experimental data: ChEMBL document CHEMBL4414672, “Synthesis of certain benzothieno[3,2-d]pyrimidine derivatives as a selective SIRT2 inhibitors” (Eur J Med Chem, 2020)

What was measured:
Assay type in all cases: functional
CCRF-CEM = assay: Growth inhibition of human CCRF-CEM cells at 10^-5 M incubated for 48 hrs by sulforhodamine B assay; settings: read-out: GI
HL-60(TB) = assay: Growth inhibition of human HL-60(TB) cells at 10^-5 M incubated for 48 hrs by sulforhodamine B assay; settings: HL-60, 48 h, read-out: GI
K562 = assay: Growth inhibition of human K562 cells at 10^-5 M incubated for 48 hrs by sulforhodamine B assay; settings: K562, 48 h, read-out: GI
EKVX = assay: Growth inhibition of human EKVX cells at 10^-5 M incubated for 48 hrs by sulforhodamine B assay; settings: read-out: GI
HOP-62 = assay: Growth inhibition of human HOP62 cells at 10^-5 M incubated for 48 hrs by sulforhodamine B assay; settings: HOP-62, 48 h, read-out: GI
HOP-92 = assay: Growth inhibition of human HOP92 cells at 10^-5 M incubated for 48 hrs by sulforhodamine B assay; settings: HOP-92, 48 h, read-out: GI
NCI-H23 = assay: Growth inhibition of human NCI-H23 cells at 10^-5 M incubated for 48 hrs by sulforhodamine B assay; settings: NCI-H23, 48 h, read-out: GI
NCI-H460 = assay: Growth inhibition of human NCI-H460 cells at 10^-5 M incubated for 48 hrs by sulforhodamine B assay; settings: NCI-H460, 48 h, read-out: GI
NCI-H522 = assay: Growth inhibition of human NCI-H522 cells at 10^-5 M incubated for 48 hrs by sulforhodamine B assay; settings: NCI-H522, 48 h, read-out: GI
HCT-116 = assay: Growth inhibition of human HCT116 cells at 10^-5 M incubated for 48 hrs by sulforhodamine B assay; settings: HCT-116, 48 h, read-out: GI
HT-29 = assay: Growth inhibition of human HT-29 cells at 10^-5 M incubated for 48 hrs by sulforhodamine B assay; settings: HT-29, 48 h, read-out: GI
KM12 = assay: Growth inhibition of human KM12 cells at 10^-5 M incubated for 48 hrs by sulforhodamine B assay; settings: KM12, 48 h, read-out: GI
SF-268 = assay: Growth inhibition of human SF268 cells at 10^-5 M incubated for 48 hrs by sulforhodamine B assay; settings: SF-268, 48 h, read-out: GI
SF-295 = assay: Growth inhibition of human SF295 cells at 10^-5 M incubated for 48 hrs by sulforhodamine B assay; settings: SF-295, 48 h, read-out: GI
SF-539 = assay: Growth inhibition of human SF539 cells at 10^-5 M incubated for 48 hrs by sulforhodamine B assay; settings: SF-539, 48 h, read-out: GI
SNB-19 = assay: Growth inhibition of human SNB19 cells at 10^-5 M incubated for 48 hrs by sulforhodamine B assay; settings: SNB-19, 48 h, read-out: GI
LOX IMVI = assay: Growth inhibition of human LOXIMVI cells at 10^-5 M incubated for 48 hrs by sulforhodamine B assay; settings: read-out: GI
Malme-3M = assay: Growth inhibition of human MALME-3M cells at 10^-5 M incubated for 48 hrs by sulforhodamine B assay; settings: read-out: GI
M14 = assay: Growth inhibition of human M14 cells at 10^-5 M incubated for 48 hrs by sulforhodamine B assay; settings: M14, 48 h, read-out: GI
MDA-MB-435 = assay: Growth inhibition of human MDA-MB-435 cells at 10^-5 M incubated for 48 hrs by sulforhodamine B assay; settings: MDA-MB-435, 48 h, read-out: GI
SK-MEL-2 = assay: Growth inhibition of human SK-MEL-2 cells at 10^-5 M incubated for 48 hrs by sulforhodamine B assay; settings: SK-MEL-2, 48 h, read-out: GI
SK-MEL-28 = assay: Growth inhibition of human SK-MEL-28 cells at 10^-5 M incubated for 48 hrs by sulforhodamine B assay; settings: SK-MEL-28, 48 h, read-out: GI
UACC-257 = assay: Growth inhibition of human UACC257 cells at 10^-5 M incubated for 48 hrs by sulforhodamine B assay; settings: UACC-257, 48 h, read-out: GI
UACC-62 = assay: Growth inhibition of human UACC62 cells at 10^-5 M incubated for 48 hrs by sulforhodamine B assay; settings: UACC-62, 48 h, read-out: GI
IGROV-1 = assay: Growth inhibition of human IGROV1 cells at 10^-5 M incubated for 48 hrs by sulforhodamine B assay; settings: IGROV-1, 48 h, read-out: GI
OVCAR-4 = assay: Growth inhibition of human OVCAR4 cells at 10^-5 M incubated for 48 hrs by sulforhodamine B assay; settings: OVCAR-4, 48 h, read-out: GI
OVCAR-5 = assay: Growth inhibition of human OVCAR5 cells at 10^-5 M incubated for 48 hrs by sulforhodamine B assay; settings: OVCAR-5, 48 h, read-out: GI
OVCAR-8 = assay: Growth inhibition of human OVCAR8 cells at 10^-5 M incubated for 48 hrs by sulforhodamine B assay; settings: OVCAR-8, 48 h, read-out: GI
SK-OV-3 = assay: Growth inhibition of human SKOV3 cells at 10^-5 M incubated for 48 hrs by sulforhodamine B assay; settings: SK-OV-3, 48 h, read-out: GI
786-0 = assay: Growth inhibition of human 786-0 cells at 10^-5 M incubated for 48 hrs by sulforhodamine B assay; settings: 786-0, 48 h, read-out: GI
A498 = assay: Growth inhibition of human A498 cells at 10^-5 M incubated for 48 hrs by sulforhodamine B assay; settings: A498, 48 h, read-out: GI
ACHN = assay: Growth inhibition of human ACHN cells at 10^-5 M incubated for 48 hrs by sulforhodamine B assay; settings: read-out: GI
SN12C = assay: Growth inhibition of human SN12C cells at 10^-5 M incubated for 48 hrs by sulforhodamine B assay; settings: read-out: GI
TK-10 = assay: Growth inhibition of human TK10 cells at 10^-5 M incubated for 48 hrs by sulforhodamine B assay; settings: TK-10, 48 h, read-out: GI
UO-31 = assay: Growth inhibition of human UO31 cells at 10^-5 M incubated for 48 hrs by sulforhodamine B assay; settings: UO-31, 48 h, read-out: GI
PC-3 = assay: Growth inhibition of human PC3 cells at 10^-5 M incubated for 48 hrs by sulforhodamine B assay; settings: PC-3, 48 h, read-out: GI
DU-145 = assay: Growth inhibition of human DU145 cells at 10^-5 M incubated for 48 hrs by sulforhodamine B assay; settings: DU-145, 48 h, read-out: GI
MCF7 = assay: Growth inhibition of human MCF7 cells at 10^-5 M incubated for 48 hrs by sulforhodamine B assay; settings: MCF7, 48 h, read-out: GI
Hs-578T = assay: Growth inhibition of human Hs 578T cells at 10^-5 M incubated for 48 hrs by sulforhodamine B assay; settings: read-out: GI

| SMILES | inhibition of growth at 10 µM (CCRF-CEM) [%] | inhibition of growth at 10 µM (HL-60(TB)) [%] | inhibition of growth at 10 µM (K562) [%] | inhibition of growth at 10 µM (EKVX) [%] | inhibition of growth at 10 µM (HOP-62) [%] | inhibition of growth at 10 µM (HOP-92) [%] | inhibition of growth at 10 µM (NCI-H23) [%] | inhibition of growth at 10 µM (NCI-H460) [%] | inhibition of growth at 10 µM (NCI-H522) [%] | inhibition of growth at 10 µM (HCT-116) [%] | inhibition of growth at 10 µM (HT-29) [%] | inhibition of growth at 10 µM (KM12) [%] | inhibition of growth at 10 µM (SF-268) [%] | inhibition of growth at 10 µM (SF-295) [%] | inhibition of growth at 10 µM (SF-539) [%] | inhibition of growth at 10 µM (SNB-19) [%] | inhibition of growth at 10 µM (LOX IMVI) [%] | inhibition of growth at 10 µM (Malme-3M) [%] | inhibition of growth at 10 µM (M14) [%] | inhibition of growth at 10 µM (MDA-MB-435) [%] | other results |
| --- | --- | --- | --- | --- | --- | --- | --- | --- | --- | --- | --- | --- | --- | --- | --- | --- | --- | --- | --- | --- | --- |
| O=C1CSC2=Nc3c(sc4ccc(Cl)cc34)C(c3ccc4ccccc4c3)N12 (stereo not drawn) | -4.04 | -2.82 | 7.65 | 7.05 | 6.69 | 6.48 | 14.1 | -1.49 | 1.87 | -7.67 | -0.5 | 3.7 | 10.3 | -4.03 | -2.59 | -1.93 | 9.15 | 4.51 | 6.91 | -5.65 | inhibition of growth at 10 µM (SK-MEL-2): -6.76%; inhibition of growth at 10 µM (SK-MEL-28): -15%; inhibition of growth at 10 µM (UACC-257): 1.52%; inhibition of growth at 10 µM (UACC-62): 15.7%; inhibition of growth at 10 µM (IGROV-1): 10.4%; inhibition of growth at 10 µM (OVCAR-4): 3.47%; inhibition of growth at 10 µM (OVCAR-5): 1.49%; inhibition of growth at 10 µM (OVCAR-8): 3.28%; inhibition of growth at 10 µM (SK-OV-3): 10.3%; inhibition of growth at 10 µM (786-0): 2.84%; inhibition of growth at 10 µM (A498): 20%; inhibition of growth at 10 µM (ACHN): 7.81%; inhibition of growth at 10 µM (SN12C): 9.96%; inhibition of growth at 10 µM (TK-10): -19.4%; inhibition of growth at 10 µM (UO-31): 37.4%; inhibition of growth at 10 µM (PC-3): 7.88%; inhibition of growth at 10 µM (DU-145): -8.09%; inhibition of growth at 10 µM (MCF7): 27.3%; inhibition of growth at 10 µM (Hs-578T): -0.18% |
| N=C1Nc2c(sc3ccc(Cl)cc23)C(c2cccc([N+](=O)[O-])c2)N1 (stereo not drawn) | 8.41 | 5.44 | 9.47 | 15.1 | -6.16 | 19.2 | 5.31 | 14.7 | -4.45 | 2.65 | 1.65 | 6.62 | -1.81 | -5.78 | 1.35 | 16.8 | -9.93 | -4.49 | -5.05 | -4.98 | inhibition of growth at 10 µM (SK-MEL-2): -19.5%; inhibition of growth at 10 µM (SK-MEL-28): 4.08%; inhibition of growth at 10 µM (UACC-257): 9.45%; inhibition of growth at 10 µM (UACC-62): 23.1%; inhibition of growth at 10 µM (IGROV-1): 4.94%; inhibition of growth at 10 µM (OVCAR-4): -4.7%; inhibition of growth at 10 µM (OVCAR-5): -1.04%; inhibition of growth at 10 µM (OVCAR-8): 9.4%; inhibition of growth at 10 µM (SK-OV-3): -1.73%; inhibition of growth at 10 µM (786-0): 16.5%; inhibition of growth at 10 µM (A498): 9.1%; inhibition of growth at 10 µM (ACHN): 22.8%; inhibition of growth at 10 µM (SN12C): -19.7%; inhibition of growth at 10 µM (TK-10): 40.3%; inhibition of growth at 10 µM (UO-31): 11.1%; inhibition of growth at 10 µM (PC-3): -10.1%; inhibition of growth at 10 µM (DU-145): 20.5%; inhibition of growth at 10 µM (MCF7): 10.7%; inhibition of growth at 10 µM (Hs-578T): -17.4% |
